This assay addresses T1, PHD2 (Homo sapiens, UniProt Q9GZT9).
T1 construct: FLAG-tagged full length PHD2 expressed in and purified from baculovirus-infected Sf9 cells; FLAG; made in house; host or cells: baculovirus-infected Sf9 cells
The assay is described as follows: PHD2 / HIF-1α peptide hydroxylation assay, time resolved fluorescence (VHL complex detection). The format is biochemical. The conditions noted are these: FLAG-tagged full length PHD2; 0.2 μM 2-oxoglutarate, 0.5 μM HIF-1α peptide; read-out: PHD2 Activity (PHD2 binding activity expressed as IC50 (nM)). On the procedure: To each well of a 96-well plate was added 1 μL of test compound in DMSO and 20 μl of assay buffer (50 mM Tris pH 7.4/0.01% Tween-20/0.1 mg/ml bovine serum albumin/10 μM ferrous sulfate/1 mM sodium ascorbate/20 μg/ml catalase) containing 0.15 μg/ml FLAG-tagged full length PHD2 expressed in and purified from baculovirus-infected Sf9 cells. After a 30 min preincubation at room temperature, the enzymatic reactions were initiated by the addition of 4 μL of substrates (final concentrations of 0.2 μM 2-oxoglutarate and 0.5 μM HIF-1α peptide biotinyl-[…]).

Counter-ions that a name gives are not always drawn.

T1 sequence (Q9GZT9 whole entry): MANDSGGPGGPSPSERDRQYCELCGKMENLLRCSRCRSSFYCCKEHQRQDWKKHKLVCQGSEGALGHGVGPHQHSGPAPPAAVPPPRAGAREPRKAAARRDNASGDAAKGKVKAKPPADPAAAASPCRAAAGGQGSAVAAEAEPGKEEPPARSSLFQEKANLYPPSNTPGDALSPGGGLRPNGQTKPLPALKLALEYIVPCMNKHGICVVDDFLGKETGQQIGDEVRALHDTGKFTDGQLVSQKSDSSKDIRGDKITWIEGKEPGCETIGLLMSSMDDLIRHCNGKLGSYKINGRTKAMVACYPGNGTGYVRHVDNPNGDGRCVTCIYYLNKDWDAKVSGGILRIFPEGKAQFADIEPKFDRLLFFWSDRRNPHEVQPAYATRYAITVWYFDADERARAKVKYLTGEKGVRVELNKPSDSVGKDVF

In general, IC50 refers to the midpoint of a concentration-inhibition curve. As to `CC[C@H](NC(=O)c1cnc(-n2cccn2)nc1O)c1ccccc1` [Example 48, 4-Hydroxy-N-[(1S)-1-phenylpropyl]-2-(1H-pyrazol-1-yl)pyrimidine-5-carboxamide], the IC50 was ≤ 10 nM.
The result for `O=C(NC(Cc1ccccc1)c1ccccc1)c1cnc(-n2cccn2)nc1O` (centres unmarked) [Example 67, N-(1,2-diphenylethyl)-4-hydroxy-2-(1H-pyrazol-1-yl)pyrimidine-5-carboxamide] reads ≤ 10 nM; that for `O=C(NCc1cccc2ccccc12)c1cnc(-n2cccn2)nc1O` [Example 56, 4-Hydroxy-N-(1-naphthylmethyl)-2-(1H-pyrazol-1-yl)pyrimidine-5-carboxamide], 10 to 100 nM; that for `C[C@H](NC(=O)c1cnc(-n2cccn2)nc1O)c1ccc(Br)cc1` [Example 91, N-[(1S)-1-(4-bromophenyl)ethyl]-4-hydroxy-2-(1H-pyrazol-1-yl)pyrimidine-5-carboxamide], ≤ 10 nM.
For the compound `COc1ccc(C(NC(=O)c2cnc(-c3cccnn3)nc2O)c2nc(C)cs2)cc1` (single isomer, unassigned) [Example 145, 4-hydroxy-N-[(4-methoxyphenyl)(4-methyl-1,3-thiazol-2-yl)methyl]-2-(pyridazin-3-yl)pyrimidine-5-carboxamide], the IC50 is ≤ 10 nM.
The same measure for `COc1ccc(C(NC(=O)c2cnc(-c3cccnn3)nc2O)c2ccc3c(c2)CCO3)cc1` (single isomer, unassigned) [Example 164, N-[2,3-dihydro-1-benzofuran-5-yl(4-methoxyphenyl)methyl]-4-hydroxy-2-(pyridazin-3-yl)pyrimidine-5-carboxamide]: ≤ 10 nM.
On to `Cc1nc(-c2ncc(C(=O)NCc3ccc(OC(F)(F)F)cc3)c(O)n2)cs1` [Example 31, 4-Hydroxy-2-(2-methyl-1,3-thiazol-4-yl)-N-[4-(trifluoromethoxy)benzyl]pyrimidine-5-carboxamide], for which the concentration for half-maximal inhibition (IC50) lay in the range of 100 to 1000 nM.
With `O=C(NCc1nc2ccccc2s1)c1cnc(-n2cccn2)nc1O` [Example 55, N-(1,3-benzothiazol-2-ylmethyl)-4-hydroxy-2-(1H-pyrazol-1-yl)pyrimidine-5-carboxamide], the concentration for half-maximal inhibition (IC50) is ≤ 10 nM.
`O=C(NCc1ccc(C(F)(F)F)cc1F)c1cnc(-n2cccn2)nc1O` [Example 68, N-[2-fluoro-4-(trifluoromethyl)benzyl]-4-hydroxy-2-(1H-pyrazol-1-yl)pyrimidine-5-carboxamide]: the IC50 lay in the range of 10 to 100 nM.
The result for `O=C(NCc1ccc(Oc2ccc(F)cc2)cc1)c1cnc(-n2cccn2)nc1O` [Example 99, N-[4-(4-fluorophenoxy)benzyl]-4-hydroxy-2-(1H-pyrazol-1-yl)pyrimidine-5-carboxamide] reads ≤ 10 nM; that for `O=C(NC1(c2ccccc2)CCCCC1)c1cnc(-c2cccnn2)nc1O` [Example 27, 4-hydroxy-N-(1-phenylcyclohexyl)-2-pyridazin-3-ylpyrimidine-5-carboxamide], ≤ 10 nM.
The same measure for `Cc1nc(-c2ncc(C(=O)Nc3ccc(F)cc3Cl)c(O)n2)cs1` [Example 38, N-(2-chloro-4-fluorophenyl)-4-hydroxy-2-(2-methyl-1,3-thiazol-4-yl)pyrimidine-5-carboxamide]: 100 to 1000 nM; for `CC(NC(=O)c1cnc(-n2cccn2)nc1O)c1ccncc1` (centres unmarked) [Example 86, 4-hydroxy-2-(1H-pyrazol-1-yl)-N-(1-pyridin-4-ylethyl)pyrimidine-5-carboxamide trifluoroacetate (salt)]: ≤ 10 nM.
As for `O=C(N[C@H](c1ccccc1)[C@H](O)c1ccccc1)c1cnc(-n2cccn2)nc1O` [Example 127, 4-hydroxy-N-[(1R,2R)-2-hydroxy-1,2-diphenylethyl]-2-(1H-pyrazol-1-yl)pyrimidine-5-carboxamide], the IC50 is ≤ 10 nM.
As to `COc1ccc(C(NC(=O)c2cnc(-c3cccnn3)nc2O)c2ccc(C#N)cc2)c(OC)c1` (single isomer, unassigned) [Example 154, N-[(4-cyanophenyl)(2,4-dimethoxyphenyl)methyl]-4-hydroxy-2-(pyridazin-3-yl)pyrimidine-5-carboxamide], the IC50 was ≤ 10 nM.
Consider `COCc1ccc(C(NC(=O)c2cnc(-c3cccnn3)nc2O)c2ccc(OC)cc2)cc1` (racemic) [Example 181], for which the IC50 was ≤ 10 nM.
`C[C@H](NC(=O)c1cnc(-n2cccn2)nc1O)C1CCCCC1` [Example 85, N-[(1S)-1-cyclohexylethyl]-4-hydroxy-2-(1H-pyrazol-1-yl)pyrimidine-5-carboxamide]: the IC50 is 10 to 100 nM.
The same measure for `O=C(NC(c1ccccc1)c1ccccn1)c1cnc(-n2cccn2)nc1O` (centres unmarked) [Example 125, 4-hydroxy-N-[phenyl(pyridin-2-yl)methyl]-2-(1H-pyrazol-1-yl)pyrimidine-5-carboxamide trifluoroacetate (salt)]: ≤ 10 nM; for `O=C(NCc1ccc(F)cc1)c1cnc(-c2ccccn2)nc1O` [Example 7, N-(4-fluorobenzyl)-4-hydroxy-2-pyridin-2-ylpyrimidine-5-carboxamide]: 100 to 1000 nM; for `CC(C)(NC(=O)c1cnc(-n2cccn2)nc1O)C(=O)O` [Example 188, N-{[4-hydroxy-2-(1H-pyrazol-1-yl)pyrimidin-5-yl]carbonyl}-2-methylalanine]: 100 to 1000 nM.
`O=C(c1ccccc1)c1ccc(CNC(=O)c2cnc(-n3cccn3)nc2O)cc1` [Example 95, N-(4-benzoylbenzyl)-4-hydroxy-2-(1H-pyrazol-1-yl)pyrimidine-5-carboxamide]: the IC50 is ≤ 10 nM.
As to `O=C(NC(c1ccccc1)c1ccc(C(F)(F)F)nc1)c1cnc(-n2cccn2)nc1O` (single isomer, unassigned) [Example 142, 4-hydroxy-N-{phenyl[6-(trifluoromethyl)pyridin-3-yl]methyl}-2-(1H-pyrazol-1-yl)pyrimidine-5-carboxamide], the 50% inhibitory concentration (IC50) was ≤ 10 nM.
As to `O=C(NCc1ccc(-c2ccccc2)cc1)c1cnc(-c2cccnn2)nc1O` [Example 28, N-(biphenyl-4-ylmethyl)-4-hydroxy-2-pyridazin-3-ylpyrimidine-5-carboxamide], the half-maximal inhibitory concentration (IC50) is ≤ 10 nM.
As for `O=C(N[C@@H](C(=O)O)c1ccccc1)c1cnc(-n2cccn2)nc1O` [Example 124, (2R)-({[4-hydroxy-2-(1H-pyrazol-1-yl)pyrimidin-5-yl]carbonyl}amino)(phenyl)ethanoic acid], the IC50 is ≤ 10 nM.
`O=C(NC1(c2ccccc2)CC1)c1cnc(-n2cccn2)nc1O` [Example 87, 4-Hydroxy-N-(1-phenylcyclopropyl)-2-(1H-pyrazol-1-yl)pyrimidine-5-carboxamide]: the half-inhibitory concentration (IC50) was ≤ 10 nM.
For `O=C(NCc1ccc(-c2cccc(F)c2)nc1)c1cnc(-n2cccn2)nc1O` [Example 107, N-{[6-(3-fluorophenyl)pyridin-3-yl]methyl}-4-hydroxy-2-(1H-pyrazol-1-yl)pyrimidine-5-carboxamide trifluoroacetate (salt)], the IC50 is ≤ 10 nM.
As to `COc1ccc(C(NC(=O)c2cnc(-c3cccnn3)nc2O)c2ccc(OC)nc2)cc1` (centres unmarked) [Example 170, 4-hydroxy-N-[(4-methoxyphenyl)(6-methoxypyridin-3-yl)methyl]-2-(pyridazin-3-yl)pyrimidine-5-carboxamide], the half-maximal inhibitory concentration (IC50) was ≤ 10 nM.
With `Cc1ccccc1Oc1ccc(CNC(=O)c2cnc(-n3cccn3)nc2O)cc1` [Example 100, 4-hydroxy-N-[4-(2-methylphenoxy)benzyl]-2-(1H-pyrazol-1-yl)pyrimidine-5-carboxamide], the IC50 was ≤ 10 nM.
Regarding `CC(C)(NC(=O)c1cnc(-n2cccn2)nc1O)C(=O)N1CCc2ccccc21` [Example 189, N-[1-(2,3-dihydro-1H-indol-1-yl)-2-methyl-1-oxopropan-2-yl]-4-hydroxy-2-(1H-pyrazol-1-yl)pyrimidine-5-carboxamide], the IC50 was ≤ 10 nM.
The same measure for `O=C(O)CNC(=O)c1cnc(-n2cccn2)nc1O` [Example 104, N-{[4-hydroxy-2-(1H-pyrazol-1-yl)pyrimidin-5-yl]carbonyl}glycine]: 1000 to 10000 nM.
As for `COc1ccc(C(NC(=O)c2cnc(-c3cccnn3)nc2O)c2ccc(C#N)cc2)c(OC)c1` (single isomer, unassigned) [Example 155, N-[(4-cyanophenyl)(2,4-dimethoxyphenyl)methyl]-4-hydroxy-2-(pyridazin-3-yl)pyrimidine-5-carboxamide], the half-inhibitory concentration (IC50) was ≤ 10 nM.
The result for `COC(=O)c1ccc(CNC(=O)c2cnc(-n3cccn3)nc2O)cc1` [Example 103, methyl 4-[({[4-hydroxy-2-(1H-pyrazol-1-yl)pyrimidin-5-yl]carbonyl}amino)methyl]benzoate] reads 10 to 100 nM.
On to `CC[C@@H](NC(=O)c1cnc(-c2csc(C)n2)nc1O)c1ccccc1` [Example 36, 4-Hydroxy-2-(2-methyl-1,3-thiazol-4-yl)-N-[(1R)-1-phenylpropyl]pyrimidine-5-carboxamide], for which the IC50 lay within 10 to 100 nM.
On to `CC(NC(=O)c1cnc(-n2cccn2)nc1O)c1ccc(C(F)(F)F)nc1` (single isomer, unassigned) [Example 141, 4-hydroxy-2-(1H-pyrazol-1-yl)-N-{1-[6-(trifluoromethyl)pyridin-3-yl]ethyl}pyrimidine-5-carboxamide], for which the concentration for half-maximal inhibition (IC50) was ≤ 10 nM.
For the compound `COCc1ccc(C(NC(=O)c2cnc(-c3cccnn3)nc2O)c2ccc(OC)cc2)cc1` (single isomer, unassigned) [Example 183, 4-Hydroxy-N-[[4-(methoxymethyl)phenyl](4-methoxyphenyl)methyl]-2-pyridazin-3-ylpyrimidine-5-carboxamide], the IC50 is ≤ 10 nM.

The record behind these values is patent publication US8278304B2, “Substituted 4-hydroxypyrimidine-5-carboxamides” (Merck Sharp & Dohme Corp., priority 2008, dated 2012).
